Measurements published in US9796714B2, “Calcium channel agonists” (University of Pittsburgh—Of the Commonwealth System of …, priority 2013, dated 2017).

Assays:
[1] = target: T1, N-type Ca^2+ channel (Cav2.2) (Rattus norvegicus, UniProt Q02294); assay: N-type Ca2+ channel agonist activity, whole-cell perforated patch clamp of tail currents in tsA201 cells; type: cell-based; details: for EC50: whole cell perforated patch clamp, deactivation (tail) currents from N-type channels, read-out: N-Type Ca^2+ Channel Activity EC50 +/− SEM
T1 construct: expressed in transfected cells; later also transient transfection
Description: tsA201 cells expressing calcium channels. […] For subsequent evaluation of effects on N-, P/Q-, or L-type channels, tsA-201 cells were transiently transfected with Cav2.2, Cav2.1, or Cav1.3, in combination with Cavβ3 and […] (Addgene, Cambridge Mass.) using FuGENE 6 (Life Technologies, Grand Island, N.Y.). All cells were maintained in DMEM supplemented with 10% fetal bovine serum. For the stable cell line expressing N-type channels, 25 μg/mL zeocin, 5 μg/mL blasticidin, and 25 μg/mL hygromycin were added as selection agents.
Whole-cell patch clamp recordings of calcium current. […] Briefly, the pipette solution consisted of […] Cs2SO4, 60 mM CsCl, 1 mM MgCl2, 10 mM 4-(2-hydroxyethyl)-1-piperazineethanesulfonic acid (HEPES) at pH 7.4. […] Patch pipettes were fabricated from borosilicate glass and pulled to a resistance of about 1 MΩ. Before each experiment, a stock solution consisting of 3 mg amphotericin-B dissolved into 50 μL anhydrous DMSO was made. […] Capacitive currents and passive membrane responses to voltage commands were subtracted from the data. Currents were amplified by an Axopatch 200B amplifier, filtered at 5 KHz, and digitized at 10 KHz for subsequent analysis using pClamp software (Axon Instruments/Molecular Devices; Sunnyvale, Calif.). […] To measure effects on calcium channel tail currents, the tail current integral was measured before and after application of a derivative, with the integral of each trace being normalized to its peak. All experiments were carried out at room temperature (22° C.). […] All other salts and chemicals were obtained from Sigma-Aldrich chemical company (St. Louis, Mo.).
Statistical Analysis. Statistical analysis was performed using either GraphPad Prism 5 (GraphPad Software, Inc.) or Origin 7 (OriginLab) software. For the dose-response analyses on Ca^2+ current, each concentration of the four different compounds was tested in 3-6 cells. […] All EC50 and IC50 values and their respective errors were determined by performing 100 iterations of a logistic function curve fit. Data are presented as mean±s.e.m. unless otherwise noted.

[2] = cited from earlier work
LEMS model NMJs = assay: Intracellular recordings at LEMS model mouse NMJs, 13x, DAP and combination (Example 4); details: 50 μM 13x, […] DAP, or both
Description: To test this, intracellular microelectrode recordings were performed on ex vivo nerve-muscle preparations taken from LEMS passive-transfer model mice and measured the magnitude of acetylcholine released at the neuromuscular junction. The most sensitive method of quantifying the magnitude of acetylcholine released is to determine the quantal content. Quantal content is defined as the number of neurotransmitter-containing synaptic vesicles that are released from the nerve terminal during a single action potential stimulus. This value was determined by first measuring the area under the average action potential-evoked endplate potential (EPP) and then dividing this value by the area under the average single vesicle release event (miniature endplate potential; mEPP). This value could be compared between experimental groups to provide an accurate measurement of changes in the magnitude of acetylcholine released during a single action potential. Using this approach, the quantal content among five experimental conditions was compared: control NMJs, LEMS NMJs, LEMS NMJs exposed to 50 μM 13x, LEMS NMJs exposed to 1.5 μM DAP, and LEMS NMJs exposed to 50 μM 13x+1.5 μM DAP (FIG. 10). […]; EPP amplitude=10.18±0.62 mV) as compared with control serum treated mouse NMJs (QC=107.5±3.6; EPP amplitude=34.62±1.37 mV; Tarr et al., 2013). […] In fact, this 13x-mediated enhancement was very similar to what was observed after exposure of LEMS model NMJs to 1.5 μM DAP (QC=49.0±4.4; EPP amplitude=17.94±1.381 mV). […]; EPP amplitude=34.62±1.37 mV; Tarr et al., 2013). […] In summary, while either 13x or DAP alone caused about an 80% increase in transmitter release from LEMS model NMJs, the combination of 13x plus DAP caused about a 300% increase in transmitter release.

[3] = test system: LEMS passive transfer mouse NMJs; assay: Intracellular recordings at LEMS passive transfer mouse NMJs, ex vivo ETA nerve-muscle preparation (Example 3); details: 50 μM, mean±SD, aBC2 LEMS passive transfer NMJs
Description: LEMS passive transfer. To test GV-58 in a LEMS model NMJ, an established LEMS passive transfer mouse model was utilized. To perform the passive transfer of LEMS, mice were injected with the serum of patients diagnosed with LEMS. […] Each serum sample was tested for the presence of voltage-gated Ca^2+ channel antibodies using a Ca^2+ channel antibody radioimmune assay (Kronus RIA kit, Star, Id.). Control serum was obtained from the University of Pittsburgh Medical Center blood bank. […]; 25-32 g; Charles River Laboratories) were divided into two groups: one group that received LEMS serum, and a control group that received control serum.
Intracellular recordings at mouse NMJs. […] A thin upper arm muscle, the epitrochleoanconeus (ETA), was chosen for these recordings. […] […]. A train of 10 EPPs was also collected in each muscle fiber using an inter-stimulus interval of 20 msec. To analyze the data, both the amplitudes and the areas under the waveforms (integral) were determined after correcting each digitized point in each trace for non-linear summation. Data were collected and analyzed using an Axoclamp 900A and the pClamp 10 suite of programs (Molecular Devices, Sunnyvale, Calif.).
Statistical Analysis. […] For the dose-response analyses on Ca^2+ current, each concentration of the four different compounds was tested in 3-6 cells. […]. All EC50 and IC50 values and their respective errors were determined by performing 100 iterations of a logistic function curve fit.

[4] = oral administration to patients

T1 sequence (Q02294 whole entry): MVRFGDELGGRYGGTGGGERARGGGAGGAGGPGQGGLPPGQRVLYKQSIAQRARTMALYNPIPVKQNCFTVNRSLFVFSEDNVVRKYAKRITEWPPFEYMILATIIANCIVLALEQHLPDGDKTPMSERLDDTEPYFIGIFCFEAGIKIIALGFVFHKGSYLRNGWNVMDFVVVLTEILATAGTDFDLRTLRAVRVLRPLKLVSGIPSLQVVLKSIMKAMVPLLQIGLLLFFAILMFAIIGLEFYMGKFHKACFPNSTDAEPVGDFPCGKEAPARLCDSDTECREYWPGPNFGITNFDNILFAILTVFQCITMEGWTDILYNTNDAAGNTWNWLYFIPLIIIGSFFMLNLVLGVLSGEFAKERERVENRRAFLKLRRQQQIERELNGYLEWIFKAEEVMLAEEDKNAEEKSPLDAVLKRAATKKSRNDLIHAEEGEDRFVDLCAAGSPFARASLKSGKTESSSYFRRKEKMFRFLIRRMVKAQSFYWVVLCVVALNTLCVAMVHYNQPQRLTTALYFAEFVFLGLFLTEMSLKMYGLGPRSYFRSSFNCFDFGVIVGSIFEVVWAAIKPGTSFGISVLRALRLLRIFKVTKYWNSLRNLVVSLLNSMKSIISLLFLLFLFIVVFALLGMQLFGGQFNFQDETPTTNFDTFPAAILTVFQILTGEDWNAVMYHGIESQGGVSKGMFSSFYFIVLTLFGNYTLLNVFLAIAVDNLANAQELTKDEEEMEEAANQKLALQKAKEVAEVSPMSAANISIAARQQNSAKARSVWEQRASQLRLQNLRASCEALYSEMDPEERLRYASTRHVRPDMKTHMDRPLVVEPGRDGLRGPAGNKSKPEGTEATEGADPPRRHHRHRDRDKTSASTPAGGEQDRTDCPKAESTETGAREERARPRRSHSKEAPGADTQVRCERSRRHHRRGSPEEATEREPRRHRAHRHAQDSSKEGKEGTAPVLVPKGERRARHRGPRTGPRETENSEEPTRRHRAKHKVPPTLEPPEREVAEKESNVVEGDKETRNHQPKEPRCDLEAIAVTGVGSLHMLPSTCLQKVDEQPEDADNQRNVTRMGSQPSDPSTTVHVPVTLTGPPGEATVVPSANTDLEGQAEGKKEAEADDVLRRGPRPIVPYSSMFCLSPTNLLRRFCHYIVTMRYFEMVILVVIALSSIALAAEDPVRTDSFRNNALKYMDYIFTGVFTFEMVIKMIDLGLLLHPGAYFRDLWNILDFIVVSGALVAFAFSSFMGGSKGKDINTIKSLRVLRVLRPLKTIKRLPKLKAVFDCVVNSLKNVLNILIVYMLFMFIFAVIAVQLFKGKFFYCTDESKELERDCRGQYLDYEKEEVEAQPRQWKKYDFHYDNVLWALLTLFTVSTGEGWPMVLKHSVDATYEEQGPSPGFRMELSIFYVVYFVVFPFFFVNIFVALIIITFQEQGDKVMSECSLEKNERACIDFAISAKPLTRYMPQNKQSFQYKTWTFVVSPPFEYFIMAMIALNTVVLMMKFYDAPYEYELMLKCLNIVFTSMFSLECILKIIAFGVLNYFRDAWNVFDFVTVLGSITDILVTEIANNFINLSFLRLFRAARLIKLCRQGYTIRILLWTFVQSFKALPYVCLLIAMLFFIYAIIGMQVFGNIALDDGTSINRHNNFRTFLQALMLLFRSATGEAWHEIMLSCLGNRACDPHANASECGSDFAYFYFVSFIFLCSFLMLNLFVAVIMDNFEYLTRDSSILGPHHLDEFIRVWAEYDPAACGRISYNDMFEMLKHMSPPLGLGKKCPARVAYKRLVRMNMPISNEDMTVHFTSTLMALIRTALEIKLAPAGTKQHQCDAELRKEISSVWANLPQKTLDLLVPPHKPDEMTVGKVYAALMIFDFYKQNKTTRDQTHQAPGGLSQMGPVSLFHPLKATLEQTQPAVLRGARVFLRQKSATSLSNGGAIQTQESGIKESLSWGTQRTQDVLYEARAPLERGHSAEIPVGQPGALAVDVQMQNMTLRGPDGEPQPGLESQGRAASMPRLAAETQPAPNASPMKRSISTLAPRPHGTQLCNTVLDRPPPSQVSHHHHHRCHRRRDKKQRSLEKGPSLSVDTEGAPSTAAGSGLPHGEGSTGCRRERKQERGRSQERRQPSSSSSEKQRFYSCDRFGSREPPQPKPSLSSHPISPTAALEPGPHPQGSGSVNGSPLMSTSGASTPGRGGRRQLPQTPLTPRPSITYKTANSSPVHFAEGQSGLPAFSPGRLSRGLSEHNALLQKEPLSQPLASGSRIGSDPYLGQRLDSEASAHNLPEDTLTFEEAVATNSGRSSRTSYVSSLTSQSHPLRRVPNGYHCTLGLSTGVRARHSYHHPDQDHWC

SMILES	EC50 [1] [µM]	further results
CCCn1cnc2c(NCc3ccc(C(F)(F)F)cc3)nc(N[C@H](CC)CO)nc21 [Compound 13o, (R)-2-(9-Propyl-6-(4-(trifluoromethyl)benzylamino)-9H-purin-2-ylamino)butan-1-ol]	> 100	
CCCn1cnc2c(NCc3ccc(-c4ccccc4)cc3)nc(N[C@H](CC)CO)nc21 [Compound 13a, (R)-2-(6-(Biphenyl-4-ylmethylamino)-9-propyl-9H-purin-2-ylamino)butan-1-ol]	> 100	
CCCn1cnc2c(Nc3ccccc3)nc(N[C@H](CC)CO)nc21 [Compound 13e, (R)-2-(6-(Phenylamino)-9-propyl-9H-purin-2-ylamino)butan-1-ol]	> 100	
CC[C@H](CO)Nc1nc(NCCc2ccccc2)c2ncn(C)c2n1 [Compound 13j, (R)-2-(9-Methyl-6-(phenethylamino)-9H-purin-2-ylamino)butan-1-ol]	> 100	
CCCn1cnc2c(NCCc3ccccc3)nc(N[C@H](CC)CO)nc21 [Compound 13c, (R)-2-(6-(Phenethylamino)-9-propyl-9H-purin-2-ylamino)butan-1-ol]	> 100	
CC[C@H](CO)Nc1nc(NCC2CC2)c2ncn(C(C)C)c2n1 [Compound 13p, (R)-2-(6-(Cyclopropylmethylamino)-9-isopropyl-9H-purin-2-ylamino)butan-1-ol]	> 100	
CC[C@H](CO)Nc1nc(NC(c2ccccc2)c2ccccc2)c2ncn(C(C)C)c2n1 [Compound 13t, (R)-2-(6-(Benzhydrylamino)-9-isopropyl-9H-purin-2-ylamino)butan-1-ol]	> 100	
CC[C@H](CO)Nc1nc(NCc2cccc(C(F)(F)F)c2)c2ncn(C(C)C)c2n1 [Compound 13v, (R)-2-(9-Isopropyl-6-(3-(trifluoromethyl)benzylamino)-9H-purin-2-ylamino)butan-1-ol]	> 100	
CC[C@H](CO)Nc1nc(NCc2ccc(-c3ccccc3)cc2)c2ncn(C(C)C)c2n1 [Compound 13s, (R)-2-(6-(Biphenyl-4-ylmethylamino)-9-isopropyl-9H-purin-2-ylamino)butan-1-ol]	> 100	
CCCn1cnc2c(NCc3ccccc3)nc(N[C@H](CC)CO)nc21 [Compound 13d, (R)-2-(6-(Benzylamino)-9-propyl-9H-purin-2-ylamino)butan-1-ol]	14.2	increased Ca^2+ channel agonism vs. (R)-roscovitine ([1]; N-type): ca. 2 fold
Nc1ccncc1N [DAP, 3,4-diaminopyridine, reference compound]		serum levels ([2]; clinical trials, 10-20 mg 3 times per day): about 0.5 μM; peak serum levels [2, 4]: 70 to 150 ng/mL; peak serum levels, corresponding concentration [2, 4]: 0.5 to 1.5 µM; 10th EPP of 50 Hz train as % of the first EPP (short-term plasticity) (LEMS model NMJs): ~132%; increase in transmitter release from LEMS model NMJs (LEMS model NMJs): ~80%; EPP amplitude (LEMS model NMJs; LEMS model NMJs): 17.94±1.381 mV; quantal content (QC, area of EPP divided by area of mEPP) (LEMS model NMJs; LEMS model NMJs, mean±s.e.m.): 49.0±4.4
CCCn1cnc2c(NCc3cccnc3)nc(N[C@H](CC)CO)nc21 [Compound 13f, (R)-2-(9-Propyl-6-(pyridin-3-ylmethylamino)-9H-purin-2-ylamino)butan-1-ol]	> 100	
CC[C@H](CO)Nc1nc(NCc2ccc(-c3ccccc3)cc2)c2ncn(C)c2n1 [Compound 13h, (R)-2-(6-(Biphenyl-4-ylmethylamino)-9-methyl-9H-purin-2-ylamino)butan-1-ol]	> 100	
Cn1cnc2c(NCc3ccccc3)nc(NCCO)nc21 [olomoucine, reference compound]		quantal content (EPP peak amplitude divided by mEPP peak amplitude) [3]: 33.4±11.3; quantal content determined from the area (integral) under EPP and mEPP waveforms [3]: 34.6±11.2; quantal content (EPP peak amplitude divided by mEPP peak amplitude) ([3]; listed as oloumucine): slightly, but significantly smaller; quantal content determined from the area (integral) under EPP and mEPP waveforms ([3]; listed as oloumucine): not significantly different
CC[C@H](CO)Nc1nc(Nc2ccccc2)c2ncn(C)c2n1 [Compound 13l, (R)-2-(9-Methyl-6-(phenylamino)-9H-purin-2-ylamino)butan-1-ol]	> 100	
CCCn1cnc2c(NCC3CC3)nc(N[C@H](CC)CO)nc21 [Compound 13g, (R)-2-(6-(Cyclopropylmethylamino)-9-propyl-9H-purin-2-ylamino)butan-1-ol]	> 100	agonist effect on the Ca^2+ channel tail currents (in words) ([1]; N-type): complete loss of N-type Ca^2+ channel activity
CC[C@H](CO)Nc1nc(NCCc2ccccc2)c2ncn(C(C)C)c2n1 [Compound 13q, (R)-2-(9-Isopropyl-6-(phenethylamino)-9H-purin-2-ylamino)butan-1-ol]	> 100	
CC[C@H](CO)Nc1nc(NCc2cccnc2)c2ncn(C(C)C)c2n1 [Compound 13r, (R)-2-(9-Isopropyl-6-(pyridin-3-ylmethylamino)-9H-purin-2-ylamino)butan-1-ol]	> 100	
CC[C@H](CO)Nc1nc(NCc2cccnc2)c2ncn(C)c2n1 [Compound 13n, (R)-2-(9-Methyl-6-(pyridin-3-ylmethylamino)-9H-purin-2-ylamino)butan-1-ol]	> 100	
CC[C@H](CO)Nc1nc(NCC2CC2)c2ncn(C)c2n1 [Compound 13m, (R)-2-(6-(Cyclopropylmethylamino)-9-methyl-9H-purin-2-ylamino)butan-1-ol]	> 100	
